Measurements as given in PMC12454493, “Insight on novel sulfamoylphenyl pyrazole derivatives as anticancer carbonic anhydrase inhibitors” (Molecular Diversity, 2024).

Key:
[1] = test system: CCRF-CEM; assay: NCI-60 one-dose SRB screen (Leukemia); type: cell-based; conditions: Homo sapiens, single dose 10 µM, 48 h, read-out: Growth inhibition percent (GI %)
[2] = test system: HL-60(TB); assay: NCI-60 one-dose SRB screen (Leukemia); type: cell-based; conditions: Homo sapiens, single dose 10 µM, 48 h, read-out: Growth inhibition percent (GI %)
[3] = test system: K-562; assay: NCI-60 one-dose SRB screen (Leukemia); type: cell-based; conditions: Homo sapiens, K562, single dose 10 µM, 48 h, read-out: Growth inhibition percent (GI %)
[4] = test system: MOLT-4; assay: NCI-60 one-dose SRB screen (Leukemia); type: cell-based; conditions: Homo sapiens, single dose 10 µM, 48 h, read-out: Growth inhibition percent (GI %)
[5] = test system: RPMI-8226; assay: NCI-60 one-dose SRB screen (Leukemia); type: cell-based; conditions: Homo sapiens, single dose 10 µM, 48 h, read-out: Growth inhibition percent (GI %)
[6] = test system: SR; assay: NCI-60 one-dose SRB screen (Leukemia); type: cell-based; conditions: Homo sapiens, single dose 10 µM, 48 h, read-out: Growth inhibition percent (GI %)
[7] = test system: A549/ATCC; assay: NCI-60 one-dose SRB screen (Non-Small Cell Lung Cancer); type: cell-based; conditions: Homo sapiens, single dose 10 µM, 48 h, read-out: Growth inhibition percent (GI %)
[8] = test system: EKVX; assay: as above; type: cell-based; conditions: Homo sapiens, single dose 10 µM, 48 h, read-out: Growth inhibition percent (GI %)
[9] = test system: HOP-62; assay: as above; type: cell-based; conditions: Homo sapiens, single dose 10 µM, 48 h, read-out: Growth inhibition percent (GI %)
[10] = test system: HOP-92; assay: as above; type: cell-based; conditions: Homo sapiens, single dose 10 µM, 48 h, read-out: Growth inhibition percent (GI %)
[11] = test system: NCI-H226; assay: as above; type: cell-based; conditions: Homo sapiens, single dose 10 µM, 48 h, read-out: Growth inhibition percent (GI %)
[12] = test system: NCI-H23; assay: as above; type: cell-based; conditions: Homo sapiens, single dose 10 µM, 48 h, read-out: Growth inhibition percent (GI %)
[13] = test system: NCI-H322M; assay: as above; type: cell-based; conditions: Homo sapiens, single dose 10 µM, 48 h, read-out: Growth inhibition percent (GI %)
[14] = test system: NCI-H460; assay: as above; type: cell-based; conditions: Homo sapiens, single dose 10 µM, 48 h, read-out: Growth inhibition percent (GI %)
[15] = test system: NCI-H522; assay: as above; type: cell-based; conditions: Homo sapiens, single dose 10 µM, 48 h, read-out: Growth inhibition percent (GI %)
[16] = test system: COLO 205; assay: NCI-60 one-dose SRB screen (Colon Cancer); type: cell-based; conditions: Homo sapiens, single dose 10 µM, 48 h, read-out: Growth inhibition percent (GI %)
[17] = test system: HCC-2998; assay: NCI-60 one-dose SRB screen (Colon Cancer); type: cell-based; conditions: Homo sapiens, single dose 10 µM, 48 h, read-out: Growth inhibition percent (GI %)
[18] = test system: HCT-116; assay: NCI-60 one-dose SRB screen (Colon Cancer); type: cell-based; conditions: Homo sapiens, single dose 10 µM, 48 h, read-out: Growth inhibition percent (GI %)
[19] = test system: HCT-15; assay: NCI-60 one-dose SRB screen (Colon Cancer); type: cell-based; conditions: Homo sapiens, single dose 10 µM, 48 h, read-out: Growth inhibition percent (GI %)
[20] = test system: HT29; assay: NCI-60 one-dose SRB screen (Colon Cancer); type: cell-based; conditions: Homo sapiens, HT-29, single dose 10 µM, 48 h, read-out: Growth inhibition percent (GI %)
[21] = test system: KM12; assay: NCI-60 one-dose SRB screen (Colon Cancer); type: cell-based; conditions: Homo sapiens, single dose 10 µM, 48 h, read-out: Growth inhibition percent (GI %)
[22] = test system: SW-620; assay: NCI-60 one-dose SRB screen (Colon Cancer); type: cell-based; conditions: Homo sapiens, single dose 10 µM, 48 h, read-out: Growth inhibition percent (GI %)
[23] = test system: LOX IMVI; assay: NCI-60 one-dose SRB screen (Melanoma); type: cell-based; conditions: Homo sapiens, single dose 10 µM, 48 h, read-out: Growth inhibition percent (GI %)
[24] = test system: M14; assay: NCI-60 one-dose SRB screen (Melanoma); type: cell-based; conditions: Homo sapiens, single dose 10 µM, 48 h, read-out: Growth inhibition percent (GI %)
[25] = test system: MALME-3M; assay: NCI-60 one-dose SRB screen (Melanoma); type: cell-based; conditions: Homo sapiens, single dose 10 µM, 48 h, read-out: Growth inhibition percent (GI %)
[26] = test system: MDA-MB-435; assay: NCI-60 one-dose SRB screen (Melanoma); type: cell-based; conditions: Homo sapiens, single dose 10 µM, 48 h, read-out: Growth inhibition percent (GI %)
[27] = test system: SK-MEL-28; assay: NCI-60 one-dose SRB screen (Melanoma); type: cell-based; conditions: Homo sapiens, single dose 10 µM, 48 h, read-out: Growth inhibition percent (GI %)
[28] = test system: SK-MEL-2; assay: NCI-60 one-dose SRB screen (Melanoma); type: cell-based; conditions: Homo sapiens, single dose 10 µM, 48 h, read-out: Growth inhibition percent (GI %)
[29] = test system: SK-MEL-5; assay: NCI-60 one-dose SRB screen (Melanoma); type: cell-based; conditions: Homo sapiens, single dose 10 µM, 48 h, read-out: Growth inhibition percent (GI %)
[30] = test system: UACC-257; assay: NCI-60 one-dose SRB screen (Melanoma); type: cell-based; conditions: Homo sapiens, single dose 10 µM, 48 h, read-out: Growth inhibition percent (GI %)
[31] = test system: UACC-62; assay: NCI-60 one-dose SRB screen (Melanoma); type: cell-based; conditions: Homo sapiens, single dose 10 µM, 48 h, read-out: Growth inhibition percent (GI %)
[32] = test system: IGROV1; assay: NCI-60 one-dose SRB screen (Ovarian cancer); type: cell-based; conditions: Homo sapiens, IGROV-1, single dose 10 µM, 48 h, read-out: Growth inhibition percent (GI %)
[33] = test system: NCI/ADR-RES; assay: NCI-60 one-dose SRB screen (Ovarian cancer); type: cell-based; conditions: Homo sapiens, single dose 10 µM, 48 h, read-out: Growth inhibition percent (GI %)
[34] = test system: OVCAR-3; assay: NCI-60 one-dose SRB screen (Ovarian cancer); type: cell-based; conditions: Homo sapiens, single dose 10 µM, 48 h, read-out: Growth inhibition percent (GI %)
[35] = test system: OVCAR-4; assay: NCI-60 one-dose SRB screen (Ovarian cancer); type: cell-based; conditions: Homo sapiens, single dose 10 µM, 48 h, read-out: Growth inhibition percent (GI %)
[36] = test system: OVCAR-5; assay: NCI-60 one-dose SRB screen (Ovarian cancer); type: cell-based; conditions: Homo sapiens, single dose 10 µM, 48 h, read-out: Growth inhibition percent (GI %)
[37] = test system: OVCAR-8; assay: NCI-60 one-dose SRB screen (Ovarian cancer); type: cell-based; conditions: Homo sapiens, single dose 10 µM, 48 h, read-out: Growth inhibition percent (GI %)
[38] = test system: SK-OV-3; assay: NCI-60 one-dose SRB screen (Ovarian cancer); type: cell-based; conditions: Homo sapiens, single dose 10 µM, 48 h, read-out: Growth inhibition percent (GI %)
[39] = test system: DU-145; assay: NCI-60 one-dose SRB screen (Prostate Cancer); type: cell-based; conditions: Homo sapiens, single dose 10 µM, 48 h, read-out: Growth inhibition percent (GI %)
[40] = test system: PC-3; assay: NCI-60 one-dose SRB screen (Prostate Cancer); type: cell-based; conditions: Homo sapiens, single dose 10 µM, 48 h, read-out: Growth inhibition percent (GI %)
[41] = test system: HS 578T; assay: NCI-60 one-dose SRB screen (Breast Cancer); type: cell-based; conditions: Homo sapiens, single dose 10 µM, 48 h, read-out: Growth inhibition percent (GI %)
[42] = test system: MCF-7; assay: NCI-60 one-dose SRB screen (Breast Cancer); type: cell-based; conditions: Homo sapiens, MCF7, single dose 10 µM, 48 h, read-out: Growth inhibition percent (GI %)
[43] = test system: MDA-MB-231/ATCC; assay: NCI-60 one-dose SRB screen (Breast Cancer); type: cell-based; conditions: Homo sapiens, single dose 10 µM, 48 h, read-out: Growth inhibition percent (GI %)
[44] = test system: T-47D; assay: NCI-60 one-dose SRB screen (Breast Cancer); type: cell-based; conditions: Homo sapiens, T47D, single dose 10 µM, 48 h, read-out: Growth inhibition percent (GI %)
[45] = biological target: hCA IX (Homo sapiens, UniProt Q16790); assay: CA inhibitory activity, spectrophotometric p-NPA assay; type: biochemical; conditions: p-NPA substrate, pH 7.5, 25 °C, triplicate; read-out: IC50 (µM) ± SD hCA IX

Cc1ccc(-c2nn(-c3ccc(S(N)(=O)=O)cc3)cc2C(=O)OCC(=O)Nc2nnc(S(N)(=O)=O)s2)cc1 [Compound 6b, 2-Oxo-2-[(5-sulfamoyl-1,3,4-thiadiazol-2-yl)amino] ethyl 1-(4-sulfamoylphenyl)-3-(p-tolyl)-1H-pyrazole-4-carboxylate]
inhibition at 10 µM [1]: 6.03%
inhibition at 10 µM [2]: < 5%
inhibition at 10 µM [3]: 16.7%
inhibition at 10 µM [4]: 7.13%
inhibition at 10 µM [5]: < 5%
inhibition at 10 µM [6]: 15.7%
inhibition at 10 µM [7]: < 5%
inhibition at 10 µM [8]: 7.25%
inhibition at 10 µM [9]: < 5%
inhibition at 10 µM [10]: 22.2%
inhibition at 10 µM [11]: 13.3%
inhibition at 10 µM [12]: 9.63%
inhibition at 10 µM [13]: < 5%
inhibition at 10 µM [14]: < 5%
inhibition at 10 µM [15]: < 5%
inhibition at 10 µM [16]: < 5%
inhibition at 10 µM [17]: < 5%
inhibition at 10 µM [18]: < 5%
inhibition at 10 µM [19]: < 5%
inhibition at 10 µM [20]: < 5%
inhibition at 10 µM [21]: < 5%
inhibition at 10 µM [22]: < 5%
inhibition at 10 µM [23]: 12.1%
inhibition at 10 µM [24]: < 5%
inhibition at 10 µM [25]: 10.9%
inhibition at 10 µM [26]: 5.8%
inhibition at 10 µM [27]: < 5%
inhibition at 10 µM [28]: < 5%
inhibition at 10 µM [29]: 23%
inhibition at 10 µM [30]: < 5%
inhibition at 10 µM [31]: 14.4%
inhibition at 10 µM [32]: < 5%
inhibition at 10 µM [33]: < 5%
inhibition at 10 µM [34]: < 5%
inhibition at 10 µM [35]: 16%
inhibition at 10 µM [36]: < 5%
inhibition at 10 µM [37]: < 5%
inhibition at 10 µM [38]: < 5%
inhibition at 10 µM [39]: < 5%
inhibition at 10 µM [40]: 7.13%
inhibition at 10 µM [41]: < 5%
inhibition at 10 µM [42]: < 5%
inhibition at 10 µM [43]: 8.63%
inhibition at 10 µM [44]: < 5%
IC50 [45]: 0.339 ± 0.016 µM
melting point: 115 to 120 °C
